Data: patent publication US20100041597A1, “PEPTIDES TARGETED TO PROTEIN KINASE C ISOFORMS AND USES THEREOF” (priority 2005, published 2010)

Tests used:
PKC-β = assay: In vitro competition with anti-PKC-β antibody, Protocol A, IMR-32 cells; format: binding, human; settings: for Band Intensity / Inhibition (%) / Relative Intensity (%): PKC-β, IMR-32, Table 6
Experimental: Cell lysates from either IMR-32 (human neuroblastoma) cells or C6Cx43 cells (rat glioma transfected cells overexpressing connexin 43) were obtained using standard protocols and the proteins of the lysate were separated by SDS PAGE electrophoresis and electrotransferred onto a nitrocellulose membrane. The membrane was incubated for 30 minutes in blocking buffer (TBST) containing the test peptide at either 5× or 20× the concentrations of the primary antibody. A primary polyclonal antibody specific for PKC-α (Santa Cruz Biotechnology, Inc., CA) was then added (15 μg/ml) and the membrane incubated for a further 45 minutes. Finally, the primary antibody was detected with a secondary antibody conjugated to alkaline phosphatase using standard procedures. The intensity of the band corresponding to PKC-α was assessed by scanning and densitometry using the Gel-Pro software (Media Cybernetics) to obtain relative band intensities (average of 3 replicas). Control assays were conducted as described above except that blocking buffer without peptide was used.
Peptides PRE 1, PRE 2 and PRE 3 (see Table 3) were tested for their ability to interfere with the binding of a PKC-β-specific polyclonal antibody (Santa Cruz Biotechnology, Inc.) to PKC-β using the general protocol described in Example 1. […] It is worth noting in this regard that PKC-α and PKC-β belong to the same sub-group of PKCs (cPKCs).

PKC-ε = assay: In vitro competition with anti-PKC-ε antibody, Protocol B, IMR-32 cells; format: binding, human
Experimental: (§1) The ability of the peptides PRE 2 and PRE 3 (see Table 3) to interfere with the binding of a PKC-α-specific polyclonal antibody (Santa Cruz Biotechnology, Inc.) to PKC-α was determined using a modified version of the protocol outlined above in which the test peptide was added directly to the cell extract prior to electrophoresis at a concentration of either 5× or 15× the concentration of the protein applied to each well of the gel for the Western blots (20 μg).
Peptides PRE 2, PRE 3 and PRE 4 (see Table 3) were tested for their ability to interfere with the binding of isoform-specific polyclonal antibodies (Santa Cruz Biotechnology, Inc.) to PKC-ε using the general protocol described in Example 3. Two bands, representing alternate splicing variants of PKC-ε, were identified on the Western blot using this anti-PKC-ε antibody.

[1] = In vitro toxicity test (fluorimetric DNA assay, Hoechst); format: cell-based, human; settings: human, IMR-32 neuroblastoma cells, with pinocytic endocytosis reagent, read-out: % survival
Experimental: (§2) In vitro cytotoxicity testing of the peptides PRE 3, PRE 4 and PRE 5 (see Table 3) was conducted following the general protocol outlined below (modified from “Fluorimetric DNA assay for cell growth estimation” Rao J, Otto W., Analytical Biochem. 207:186-192, 1992).
(§3) The assay was performed in 96 well plates, with 3,000 IMR-32 neuroblastoma cells seeded per well and 8 replicas were performed per treatment. The cells were pre-treated with either plain medium and a pinocytic endocytosis reagent (Molecular Probes) or medium containing the PRE under evaluation and the pinocytic endocytosis reagent. The cells were allowed to grow under conventional conditions for 3 days. The DNA content of each well was assessed at 24, 48 and 72 hours using Hoechst reagent according to standard procedures. The fluorescence intensity per well was measured using the plate reader “CytoFluor 2350” from Millipore. Excitation was 360 nm and emission was 460 nm. The number of cells is directly correlated to the DNA content.
(§4) The results are shown in Tables 11-13 as the average relative fluorescence intensity measured for the 8 replica wells, as well as the percentage of survival as compared with matching untreated controls.

[2] = tested on: IMR-32 neuroblastoma cells; assay: as above; format: cell-based, human; settings: with pinocytic endocytosis reagent
Experimental: as §2, §3, §4

PKC-βI = PKC-βI (Homo sapiens, UniProt P05771); assay: In vitro competition with anti-PKC-βI antibody, Protocol B, IMR-32 cells; format: binding; set-up: PRE 3 and PRE 4 in IMR-32 Neuroblastoma Cells: Protocol B; endogenous in cells; host or cells: IMR-32; settings: PKC-βI; for Band Intensity: control band intensity 170.5, Table 9
Sequence of PKC-βI (P05771 whole entry): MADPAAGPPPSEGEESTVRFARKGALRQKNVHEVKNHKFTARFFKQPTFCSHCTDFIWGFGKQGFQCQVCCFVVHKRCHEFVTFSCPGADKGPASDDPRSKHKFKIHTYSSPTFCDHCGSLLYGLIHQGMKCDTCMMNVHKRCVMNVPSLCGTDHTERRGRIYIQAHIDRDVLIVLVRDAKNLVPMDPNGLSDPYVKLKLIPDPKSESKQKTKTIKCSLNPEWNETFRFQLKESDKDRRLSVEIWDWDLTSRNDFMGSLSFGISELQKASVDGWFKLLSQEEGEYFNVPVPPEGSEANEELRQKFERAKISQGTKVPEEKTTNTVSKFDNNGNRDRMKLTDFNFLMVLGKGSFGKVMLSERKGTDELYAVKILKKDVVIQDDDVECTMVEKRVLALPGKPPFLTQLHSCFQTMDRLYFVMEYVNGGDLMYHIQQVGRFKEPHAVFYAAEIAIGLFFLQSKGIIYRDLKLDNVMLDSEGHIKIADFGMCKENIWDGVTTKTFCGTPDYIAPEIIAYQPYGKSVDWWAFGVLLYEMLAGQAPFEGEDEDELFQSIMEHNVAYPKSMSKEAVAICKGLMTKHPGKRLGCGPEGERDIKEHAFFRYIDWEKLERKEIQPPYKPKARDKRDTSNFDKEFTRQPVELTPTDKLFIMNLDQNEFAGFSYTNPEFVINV
Experimental: as §1
(§5) Peptides PRE 3 and PRE 4 (see Table 3) were tested for their ability to interfere with the binding of isoform-specific polyclonal antibodies (Santa Cruz Biotechnology, Inc.) to PKC-α, PKC-βI or PKC-βII using the general protocol described in Example 3.

PKC-α = PKC-α (Homo sapiens, UniProt P17252); assay: In vitro competition with anti-PKC-α antibody, Protocol B (peptide added to cell extract before electrophoresis), IMR-32 cells; format: binding; set-up: subcellular localisation of endogenous PKC-α in IMR-32 cells; endogenous in cells; host or cells: IMR-32; settings: for Inhibition (%) / Relative Intensity (%): Table 9
Experimental: as §5

Substance: Ac-AKGIQEVKGGDAQNLIGISI-NH2 [PRE 3]
- effect on antibody binding to PKC-β (PKC-β): did not show an effect on antibody binding to PKC-β
- Band Intensity (PKC-β; 75 μg): 1.900
- Inhibition (%) (PKC-β; 75 μg): 0.0%
- Relative Intensity (%) (PKC-β; 75 μg): 102.4%
- Band Intensity (PKC-β; 300 μg): 1.900
- Inhibition (%) (PKC-β; 300 μg): 0.0%
- Relative Intensity (%) (PKC-β; 300 μg): 102.4%
- Band Intensity (PKC-β; 600 μg): 1.847
- Inhibition (%) (PKC-β; 600 μg): 0.0%
- Relative Intensity (%) (PKC-β; 600 μg): 99.6%
- Band Intensity (PKC-ε; 20 μg, PKC-ε Band 1, Table 10): 5.12
- Inhibition (%) (PKC-ε; 20 μg, PKC-ε Band 1, Table 10): 99.0%
- Relative Intensity (%) (PKC-ε; 20 μg, PKC-ε Band 1, Table 10): 0.12%
- Band Intensity (PKC-ε; 20 μg, PKC-ε Band 2, Table 10): 0.0
- Inhibition (%) (PKC-ε; 20 μg, PKC-ε Band 2, Table 10): 100.0%
- Relative Intensity (%) (PKC-ε; 20 μg, PKC-ε Band 2, Table 10): 0.0%
- Band Intensity (PKC-ε; 50 μg, PKC-ε Band 1, Table 10): 0.0
- Inhibition (%) (PKC-ε; 50 μg, PKC-ε Band 1, Table 10): 100.0%
- Relative Intensity (%) (PKC-ε; 50 μg, PKC-ε Band 1, Table 10): 0.0%
- Band Intensity (PKC-ε; 50 μg, PKC-ε Band 2, Table 10): 0.0
- Inhibition (%) (PKC-ε; 50 μg, PKC-ε Band 2, Table 10): 100.0%
- Relative Intensity (%) (PKC-ε; 50 μg, PKC-ε Band 2, Table 10): 0.0%
- Band Intensity (PKC-ε; 100 μg, PKC-ε Band 1, Table 10): 0.0
- Inhibition (%) (PKC-ε; 100 μg, PKC-ε Band 1, Table 10): 100.0%
- Relative Intensity (%) (PKC-ε; 100 μg, PKC-ε Band 1, Table 10): 0.0%
- Band Intensity (PKC-ε; 100 μg, PKC-ε Band 2, Table 10): 0.0
- Inhibition (%) (PKC-ε; 100 μg, PKC-ε Band 2, Table 10): 100.0%
- Relative Intensity (%) (PKC-ε; 100 μg, PKC-ε Band 2, Table 10): 0.0%
- viability at 24 h, 2500 µg/mL ([1]; 2.5 mg/ml, 24 h): 127%
- viability at 48 h, 2500 µg/mL ([1]; 2.5 mg/ml, 48 h): 150%
- viability at 72 h, 2500 µg/mL ([1]; 2.5 mg/ml, 72 h): 123%
- viability at 24 h, 10000 µg/mL ([1]; 10 mg/ml, 24 h): 120%
- viability at 48 h, 10000 µg/mL ([1]; 10 mg/ml, 48 h): 129%
- viability at 72 h, 10000 µg/mL ([1]; 10 mg/ml, 72 h): 117%
- AFI (Average fluorescence intensity) ([2]; 2.5 mg/ml, 24 h): 193
- AFI (Average fluorescence intensity) ([2]; 2.5 mg/ml, 48 h): 389
- AFI (Average fluorescence intensity) ([2]; 2.5 mg/ml, 72 h): 871
- AFI (Average fluorescence intensity) ([2]; 10 mg/ml, 24 h): 182
- AFI (Average fluorescence intensity) ([2]; 10 mg/ml, 48 h): 334
- AFI (Average fluorescence intensity) ([2]; 10 mg/ml, 72 h): 830
- inhibition at 0.1 mg (PKC-βI; 100 μg, Table 9): 100%
- remaining activity at 0.1 mg (PKC-βI; 100 μg, Table 9, read-out: Relative Intensity (%)): 0%
- Band Intensity (PKC-βI; 100 μg): 0.0
- inhibition at 0.2 mg (PKC-βI; 200 μg, Table 9): 100%
- remaining activity at 0.2 mg (PKC-βI; 200 μg, Table 9, read-out: Relative Intensity (%)): 0%
- Band Intensity (PKC-βI; 200 μg): 0.0
- inhibition at 0.3 mg (PKC-βI; 300 μg, Table 9): 100%
- remaining activity at 0.3 mg (PKC-βI; 300 μg, Table 9, read-out: Relative Intensity (%)): 0%
- Band Intensity (PKC-βI; 300 μg): 0.0
- effect on antibody binding to PKC-α (PKC-α): effectively interfered with PKC-α antibody binding to PKC-α
- Band Intensity (PKC-α; 100 μg, PKC-α, IMR-32, Table 7): 0.0
- inhibition at 0.1 mg (PKC-α; 100 μg, PKC-α, IMR-32, Table 7): 100%
- remaining activity at 0.1 mg (PKC-α; 100 μg, PKC-α, IMR-32, Table 7, read-out: Relative Intensity (%)): 0%
- Inhibition (%) (PKC-α; 100 μg, PKC-α): 100.0%
- Relative Intensity (%) (PKC-α; 100 μg, PKC-α): 0.0%
- Band Intensity (PKC-α; 100 μg, PKC-α, control band intensity 302.5, Table 9): 0.0
- Band Intensity (PKC-α; 200 μg, PKC-α, IMR-32, Table 7): 0.0
- inhibition at 0.2 mg (PKC-α; 200 μg, PKC-α, IMR-32, Table 7): 100%
- remaining activity at 0.2 mg (PKC-α; 200 μg, PKC-α, IMR-32, Table 7, read-out: Relative Intensity (%)): 0%
- Inhibition (%) (PKC-α; 200 μg, PKC-α): 100.0%
- Relative Intensity (%) (PKC-α; 200 μg, PKC-α): 0.0%
- Band Intensity (PKC-α; 200 μg, PKC-α, control band intensity 302.5, Table 9): 0.0
- Band Intensity (PKC-α; 300 μg, PKC-α, IMR-32, Table 7): 0.0
- inhibition at 0.3 mg (PKC-α; 300 μg, PKC-α, IMR-32, Table 7): 100%
- remaining activity at 0.3 mg (PKC-α; 300 μg, PKC-α, IMR-32, Table 7, read-out: Relative Intensity (%)): 0%
- Inhibition (%) (PKC-α; 300 μg, PKC-α): 100.0%
- Relative Intensity (%) (PKC-α; 300 μg, PKC-α): 0.0%
- Band Intensity (PKC-α; 300 μg, PKC-α, control band intensity 302.5, Table 9): 0.0
